The source of these data is patent EP1043336A2, “Stereospecific antibodies for imidazolinone herbicides” (The Regents of the University of California, priority 1999, dated 2000).

One test deals with MAb 3A2. The experiment in a line: Indirect competition EIA, cross-reactivity with common agrochemicals (wells coated with hapten 17-OA). The format is binding, mouse. As to conditions: for inhibition: 5-10 ppm. The procedure:
EIAs were done essentially as described by Karu et al (1994). For indirect EIAs, hapten-protein conjugates were adsorbed to wells of Immulon 2™ 96-well plates (Dynatech) in 0.1 mL of coating buffer (0.015 M Na2CO3 ― 0.035 M NaHCO3 ―0.003 M NaN3, pH 9.6). PBS-Tween containing 0.05% gelatin, 0.45 micron-filtered, was used as the diluent for antibodies and antibody-analyte mixtures, and as a blocking solution to prevent adventitious binding. The detecting antibody for the indirect EIAs was alkaline phosphatase conjugated goat anti-mouse IgG and IgM The substrate solution for color development was p-nitrophenyl phosphate 1 mg/mL, in 10% (w/v) diethanolamine-HCl, pH 9.8 ― 0.5 mM MgCl2 ― 3 mM NaN3. • 1. Indirect competition EIA. Indirect competition EIA (immobilized hapten conjugate) was used to evaluate the responses of mice, screen the MAbs, and quantify imidazolinone analytes. Optimal amounts of imidazolinone-BSA or -OVA conjugate for plate coating and dilutions for the hybridoma culture supernate or antiserum were determined by checkerboard assay. To perform the assay, wells were coated overnight at 4°C with a limiting amount of conjugate in 0.1 mL of coating buffer. Imidazolinone standards (0.5 to 5000 ppb) or unknowns were mixed with a limiting amount of antiserum or hybridoma culture fluid in the diluent and incubated overnight at 4°C in tightly sealed polypropylene tubes. The coated wells were washed and blocked with 0.2 mL of 0.05% gelatin in PBS-Tween for 30 minutes at room temperature. After another wash, aliquots (0.1 mL) of the antibody-analyte mixture were added to wells, and the remainder of the assay was performed as previously described (Karu et al., 1994). • 2. Direct competition EIA. Direct EIAs were performed by capturing the MAb on microwells and allowing the analyte to compete with a HRP-conjugated hapten for binding. Bound HRP-conjugate was then detected with a commercial HRP substrate. The sensitivity of this assay was enhanced by use of a commercial enzymatic signal amplification kit (GIBCO-BRL). Wells were coated with 200 or 500 ng of affinity-purified goat anti-mouse IgG or anti-mouse IgG Fc in the coating buffer at 4°C overnight. The next day, the wells were washed and blocked with PBS-Tween-gelatin for 30 minutes at room temperature, and then incubated for 1.5 hours at room temperature with hybridoma culture supernate. The plates were washed with PBS-Tween, and 0.1 mL of diluent containing the analyte and a limiting amount of biotinylated imidazolinone was added for 1.5 h at room temperature. The wells were washed three times with PBS-Tween, and Extravidin-alkaline phosphatase conjugate (Sigma) was then added for 30 minutes at room temperature. The plates were washed again with TBS (0.05 M Tris-HCl, pH 7.5,― 0.15 M NaCl) to remove remaining inorganic phosphate, which can inhibit the GIBCO-BRL EIA Amplification system. Substrate solution for the amplification step (0.05 mL) was added for 15 minutes at room temperature, followed by 0.05 mL of the enzymatic amplifying solution and chromogen. Color development at 492 nm was recorded. • 3. EIA Data Analysis. Color development was monitored on a Multiskan EIA reader (Flow Laboratories) interfaced with a Macintosh computer, and the rates of the reaction were calculated by linear regression. Competition EIA dose- response curves were fitted with a 4-parameter logistic equation (Karu et al., 1994). […]

The subject of test [1] is scFv p3A5.1c7 (scFv 3A5, SEQ.ID NO. 3). The experiment in a line: Relative affinity of MAb and affinity-purified scFv by indirect EIA with equimolar protein. As to conditions: indirect EIA on 16-BSA, scFv versus MAb 3A5. It is filed as binding, mouse. The procedure: The relative affinities of the MAbs and affinity-purified scFv were determined by indirect EIA using equimolar amounts of protein, essentially as described by Graham, B. M., et al. 1995. Cloning, expression, and characterization of a single-chain antibody fragment to the herbicide paraquat. J. Chem. Tech. Biotechnol. 63: 279-289. The results are illustrated in graphical form in Figures 15A (16-BSA) and 15B (17-OA), with the MAb represented by the solid line and the scFv represented by the broken line in each plot.

Test [2] relates to panel of monoclonal antibodies (MAbs). Briefly: Detection of imidazolinones by the panel of MAbs (EIA). It is filed as binding, mouse. The procedure: EIAs were done essentially as described by Karu et al (1994). For indirect EIAs, hapten-protein conjugates were adsorbed to wells of Immulon 2™ 96-well plates (Dynatech) in 0.1 mL of coating buffer (0.015 M Na2CO3 ― 0.035 M NaHCO3 ―0.003 M NaN3, pH 9.6). PBS-Tween containing 0.05% gelatin, 0.45 micron-filtered, was used as the diluent for antibodies and antibody-analyte mixtures, and as a blocking solution to prevent adventitious binding. The detecting antibody for the indirect EIAs was alkaline phosphatase conjugated goat anti-mouse IgG and IgM The substrate solution for color development was p-nitrophenyl phosphate 1 mg/mL, in 10% (w/v) diethanolamine-HCl, pH 9.8 ― 0.5 mM MgCl2 ― 3 mM NaN3. • 1. Indirect competition EIA. Indirect competition EIA (immobilized hapten conjugate) was used to evaluate the responses of mice, screen the MAbs, and quantify imidazolinone analytes. Optimal amounts of imidazolinone-BSA or -OVA conjugate for plate coating and dilutions for the hybridoma culture supernate or antiserum were determined by checkerboard assay. To perform the assay, wells were coated overnight at 4°C with a limiting amount of conjugate in 0.1 mL of coating buffer. Imidazolinone standards (0.5 to 5000 ppb) or unknowns were mixed with a limiting amount of antiserum or hybridoma culture fluid in the diluent and incubated overnight at 4°C in tightly sealed polypropylene tubes. The coated wells were washed and blocked with 0.2 mL of 0.05% gelatin in PBS-Tween for 30 minutes at room temperature. After another wash, aliquots (0.1 mL) of the antibody-analyte mixture were added to wells, and the remainder of the assay was performed as previously described (Karu et al., 1994). • 2. Direct competition EIA. Direct EIAs were performed by capturing the MAb on microwells and allowing the analyte to compete with a HRP-conjugated hapten for binding. Bound HRP-conjugate was then detected with a commercial HRP substrate. The sensitivity of this assay was enhanced by use of a commercial enzymatic signal amplification kit (GIBCO-BRL). Wells were coated with 200 or 500 ng of affinity-purified goat anti-mouse IgG or anti-mouse IgG Fc in the coating buffer at 4°C overnight. The next day, the wells were washed and blocked with PBS-Tween-gelatin for 30 minutes at room temperature, and then incubated for 1.5 hours at room temperature with hybridoma culture supernate. The plates were washed with PBS-Tween, and 0.1 mL of diluent containing the analyte and a limiting amount of biotinylated imidazolinone was added for 1.5 h at room temperature. The wells were washed three times with PBS-Tween, and Extravidin-alkaline phosphatase conjugate (Sigma) was then added for 30 minutes at room temperature. The plates were washed again with TBS (0.05 M Tris-HCl, pH 7.5,― 0.15 M NaCl) to remove remaining inorganic phosphate, which can inhibit the GIBCO-BRL EIA Amplification system. Substrate solution for the amplification step (0.05 mL) was added for 15 minutes at room temperature, followed by 0.05 mL of the enzymatic amplifying solution and chromogen. Color development at 492 nm was recorded. • 3. EIA Data Analysis. Color development was monitored on a Multiskan EIA reader (Flow Laboratories) interfaced with a Macintosh computer, and the rates of the reaction were calculated by linear regression. Competition EIA dose- response curves were fitted with a 4-parameter logistic equation (Karu et al., 1994).

The test system of test [3] is AHAS isozymes, designated I and II. As to conditions: isozymes from Black Mexican Sweet corn; cited from earlier work.
Test [4] has as its system scFv p3A5.1c7 (scFv 3A5, SEQ.ID NO. 3). Briefly: Indirect competition EIA with scFv (16-BSA coating), compared with MAb 3A5.1. It is filed as binding, mouse. As to conditions: scFv on 16-BSA versus MAb 3A5.1.

For the molecule `CCCN(CCC)C(=O)SCC` [EPTC, S-ethyl dipropylthiocarbamate], in the test on MAb 3A2 (up to 10 ppm), the cross-reactivity result is “No cross-reactivity”.

As for `CCc1cccc(CC)c1N(COC)C(=O)CCl` [alachlor, 2-chloro-2'-6'-diethyl-N-(methoxymethyl)-acetanilide], the cross-reactivity result in the test on MAb 3A2 (up to 10 ppm) was “No cross-reactivity”.

`CCNc1nc(Cl)nc(NC(C)C)n1` [atrazine, Atrazine]: in the test with MAb 3A2 (up to 10 ppm), the cross-reactivity result was “No cross-reactivity”.

Regarding `CCOC(=O)c1ccccc1S(=O)(=O)NC(=O)Nc1nc(Cl)cc(OC)n1` [chlorimuron ethyl, ethyl 2-[[[[(4-chloro-6-methoxypyrimidin 2-yl)amino]carbonyl]amino]sulfonyl]benzoate], the inhibition in the test on MAb 3A2 is reported as 10-15%. Further, the cross-reactivity result in the test with MAb 3A2 (up to 5 ppm) is reported as “did not cross-react”.

Turning to `COc1nc(C)nc(NC(=O)NS(=O)(=O)c2ccccc2Cl)n1` [chlorsulfuron, 2-chloro-N[(4-methoxy-6-methyl-1,3,5 triazin-2-yl)aminocarbonyl]benzenesulfonamide], the inhibition in the test with MAb 3A2 is 10-15%. Moreover, the cross-reactivity entry with MAb 3A2 (up to 5 ppm) was “did not cross-react”.

Consider `CC(C)N.O=C(O)CNCP(=O)(O)O` [glyphosate, N-(phosphono-methyl) glycine isopropylamine salt], for which the cross-reactivity result in the test on MAb 3A2 (up to 10 ppm) is reported as “No cross-reactivity”.

For the molecule `CC(C)C1(C)N=C(c2ncc(C=CC(=O)O)cc2C(=O)O)NC1=O` (stereo not shown) [hapten 16, imazapyr-5-propenoic acid], in test [1], the “affinity of the scFv relative to that of the MAb (fold poorer)” value was “about 1,000 fold”.

For the molecule `Cc1cnc(C2=NC(C)(C(C)C)C(=O)N2)c(C(=O)O)c1` (stereo not shown) [imazapic, 5-methyl-2-(4-isopropyl-4-methyl-5-oxo-2-imidazolin-2-yl) nicotinic acid], in test [2], the detection range fell in the range of 3 to 30 ng/mL.

In the case of `CC(C)C1(C)N=C(c2ncccc2C(=O)O)NC1=O` (stereo not shown) [imazapyr, 2-(4-isopropyl-4-methyl-5-oxo-2-imidazolin-2-yl) nicotinic acid], the “sensitivity of AHAS II vs AHAS I to inhibition” value in test [3] is on record as “significantly more sensitive”. In addition, the detection range in test [2] was 300-500 ppb.

With `CC(C)C1(C)N=C(c2nc3ccccc3cc2C(=O)O)NC1=O` (stereo not shown) [imazaquin, 2-(4-isopropyl-4-methyl-5-oxo-2-imidazolin-2-yl)-3-quinoline carboxylic acid], in test [4], the “I50 with scFv relative to I50 with the MAb (higher = less sensitive)” value was “about two-fold”. Further, the detection range in test [2] lay in the range of 3 to 30 ng/mL.

As for `CCc1cccc(C)c1N(C(=O)CCl)C(C)COC` (stereo not shown) [metolachlor, 2-chloro-N-(2-ethyl-6-methylphenyl)-N-(2-methoxy-1-methylethyl) acetamide], the cross-reactivity result with MAb 3A2 (up to 10 ppm) is recorded as “No cross-reactivity”.

In the case of `CCSC(=O)N1CCCCCC1` [molinate, S-ethyl-hexahydro-1-H-azepine-1-carbothioate], the cross-reactivity result with MAb 3A2 (up to 10 ppm) is “No cross-reactivity”.

For `CCOc1cc(Oc2ccc(C(F)(F)F)cc2Cl)ccc1[N+](=O)[O-]` [oxyfluorfen, 2-chloro-1-(3-ethoxy-4-nitrophenoxy)-4-(trifluoromethyl) benzene], the cross-reactivity result in the test with MAb 3A2 (up to 10 ppm) is “No cross-reactivity”.

`C[n+]1ccc(-c2cc[n+](C)cc2)cc1.[Cl-].[Cl-]` [paraquat, 1,1'-dimethyl-4,4'-bipyridinium dichloride]: the cross-reactivity entry in the test on MAb 3A2 (up to 10 ppm) is listed as “No cross-reactivity”.

As for `CCC(CC)Nc1c([N+](=O)[O-])cc(C)c(C)c1[N+](=O)[O-]` [pendimethalin, N-(1-ethylpropyl)-3,4-dimethyl-2,6-dinitrobenzenamine], the cross-reactivity result in the test on MAb 3A2 (up to 10 ppm) is recorded as “No cross-reactivity”.

Regarding `COC(=O)Nc1cccc(OC(=O)Nc2cccc(C)c2)c1` [phenmedipham, 3-methoxycarbonylaminophenyl-N(3'-methylphenyl)carbamate], the cross-reactivity result with MAb 3A2 (up to 10 ppm) was “No cross-reactivity”.

Regarding `CCC/C(=N\OCC)C1=C(O)CC(CC(C)SCC)CC1=O` (stereo not shown) [sethoxydim], the cross-reactivity entry with MAb 3A2 (up to 10 ppm) was “No cross-reactivity”.

Turning to “a mixture of methyl 6-(4-isopropyl-4-methyl-5-oxo-2-imidazolin-2-yl) m-toluate and methyl 2-(4-isopropyl-4-methyl-5-oxo-2-imidazolin-2-yl) p-toluate [imazamethabenz-methyl]”, the detection range in test [2] is given as 300-500 ppb.
